pIC50: −log10 of the molar value. Read-outs that look alike come from different tables or passages of the source.
System: HIV-1 (H9/IIB strain)
Assay: Multiple Round HIV-1 Infection Assay (Viking Assay) in MT4-GFP cells
Type: cell-based
Settings: inhibition of reproductive ratio R0
Protocol: Assessing antiviral potency in a Multiple Round HIV-1 Infection Assay (Viking Assay) The antiviral activity of the tenofovir prodrugs of the Examples herein was assessed in an assay that measures the rate of replication of HIV in cell culture, termed the Viking assay (VIral KINetics in Green cells) and performed as follows. HIV-1 replication was monitored using MT4-gag-GFP clone D3 (hereafter designated MT4-GFP), which are MT-4 cells modified to harbor a GFP reporter gene, the expression of which is dependent on the HIV-1 expressed proteins tat and rev. Productive infection of an MT4-GFP cell with HIV-1 results in GFP expression approximately 24 h post-infection. MT4-GFP cells were maintained at 37° C./5% CO2/90% relative humidity in RPMI 1640 supplemented with 10/o fetal bovine serum, 100 U/ml penicillin/streptomycin, and 400 μg/ml G418 to maintain the reporter gene. For infections, MT4-GFP cells were placed in the same medium lacking G418 and infected overnight with HIV-1 (H9/IIB strain) virus at an approximate multiplicity of infection of 0.01 in the same incubation conditions. Cells were then washed and re-suspended in either RPMI 1640 supplemented with 10% or 50% normal human serum (NHS) at 1.6×10^5 cells/mL (10% NHS or 50% NHS, respectively). Compound plates were prepared by dispensing compounds dissolved in DMSO into wells of 384 well poly-D-lysine-coated plates (0.2 μl/well) using an ECHO acoustic dispenser. Each compound was tested in a 10-point serial 3-fold dilution (typical final concentrations: 8.4 μM-0.42 nM). Controls included no inhibitor (DMSO only) and a combination of three antiviral agents (efavirenz, indinavir, an in-house integrase strand transfer inhibitor at final concentrations of 4 μM each). Cells were added (50 μL/well) to compound plates and the infected cells were maintained at 37° C./5% CO2/90% relative humidity.
Infected cells were quantified at two time points, ˜48 h and ˜72 h post-infection, by counting the number of green cells in each well using an Acumen eX3 scanner. The increase in the number of green cells over ˜24 h period gives the reproductive ratio, R0, which is typically 5-15 and has been shown experimentally to be in logarithmic phase (data not shown). Inhibition of R0 is calculated for each well, and IC50s determined by non-linear 4-parameter curve fitting.

[1] = MT4-GFP cells infected with HIV-1, 10% normal human serum, read-out: Viking, IC50 (10% NHS)
[2] = MT4-GFP cells infected with HIV-1, 50% normal human serum, read-out: Viking, IC50 (50% NHS)
[3] = Human immunodeficiency virus 1, MT4-GFP cells infected with HIV-1, 10% normal human serum, read-out: Viking, IC50 (10% NHS)
[4] = Human immunodeficiency virus 1, MT4-GFP cells infected with HIV-1, 50% normal human serum, read-out: Viking, IC50 (50% NHS)

Structure (SMILES) | pIC50 [1] | pIC50 [2] | pIC50 [3] | pIC50 [4]
CCCOC(=O)C(C)(C)N[P@@](=O)(CO[C@H](C)Cn1cnc2c(N)ncnc21)N[C@@H](c1ccc(C#N)cc1)C(F)(F)F.CCCOC(=O)C(C)(C)N[P@](=O)(CO[C@H](C)Cn1cnc2c(N)ncnc21)N[C@@H](c1ccc(C#N)cc1)C(F)(F)F (mixture of isomers) [Example 24A, propyl 2-(((R)-((((R)-1-(6-amino-9H-purin-9-yl)propan-2-yl)oxy)methyl)(((S)-1-(4-cyanophenyl)-2,2,2-trifluoroethyl)amino)phosphoryl)amino)-2-methylpropanoate and propyl 2-(((S)-((((R)-1-(6-amino-9H-purin-9-yl)propan-2-yl)oxy)methyl)(((S)-1-(4-cyanophenyl)-2,2,2-trifluoroethyl)amino)phosphoryl)amino)-2-methylpropanoate] | 8.20 | 7.52 | – | –
CCCOC(=O)C(C)(C)N[P@@](=O)(CO[C@H](C)Cn1cnc2c(N)ncnc21)N[C@@H](c1ccc(C#N)cc1)C(F)(F)F.CCCOC(=O)C(C)(C)N[P@](=O)(CO[C@H](C)Cn1cnc2c(N)ncnc21)N[C@@H](c1ccc(C#N)cc1)C(F)(F)F (mixture of isomers) [Example 24B, propyl 2-(((R)-((((R)-1-(6-amino-9H-purin-9-yl)propan-2-yl)oxy)methyl)(((S)-1-(4-cyanophenyl)-2,2,2-trifluoroethyl)amino)phosphoryl)amino)-2-methylpropanoate and propyl 2-(((S)-((((R)-1-(6-amino-9H-purin-9-yl)propan-2-yl)oxy)methyl)(((S)-1-(4-cyanophenyl)-2,2,2-trifluoroethyl)amino)phosphoryl)amino)-2-methylpropanoate] | 7.66 | 6.77 | – | –
CCCOC(=O)C(C)(C)NP(=O)(CO[C@H](C)Cn1cnc2c(N)ncnc21)N(C)[C@H](C)c1ccc(Cl)cc1 (single isomer, unassigned) [Example 2B] | – | – | 8.70 | 8.02
CCCOC(=O)C(C)(C)N[P@@](=O)(CO[C@H](C)Cn1cnc2c(N)ncnc21)N[C@H](c1ccc(OC(F)(F)F)cc1)C(F)(F)F (single isomer, unassigned) [Example 27B] | 7.28 | 6.60 | – | –
CCCOC(=O)C(C)(C)NP(=O)(CO[C@H](C)Cn1cnc2c(N)ncnc21)N[C@H](C)c1ccc(Cl)cc1 (stereo partly drawn) [Example 1A, propyl 2-(((R)-((((R)-1-(6-amino-9H-purin-9-yl)propan-2-yl)oxy)methyl(((R)-1-(4-chlorophenyl)ethyl)amino)phosphoryl)amino)-2-methylpropanoate and propyl 2-(((S)-((((R)-1-(6-amino-9H-purin-9-yl)propan-2-yl)oxy)methyl)(((R)-1-(4-chlorophenyl)ethyl)amino)phosphoryl)amino)-2-methylpropanoate] | – | – | 6.92 | 6.15
CCCOC(=O)C(C)(C)NP(=O)(CO[C@H](C)Cn1cnc2c(N)ncnc21)N(C)[C@H](C)c1ccc(Cl)cc1 (stereo partly drawn) [Example 2A, propyl 2-(((R)-((((R)-1-(6-amino-9H-purin-9-yl)propan-2-yl)oxy)methyl(((R)-1-(4-chlorophenyl)ethyl)(methyl)amino)phosphonyl)amino)-2-methylpropanoate and propyl 2-(((S)-((((R)-1-(6-amino-9H-purin-9-yl)propan-2-yl)oxy)methyl)(((R)-1-(4-chlorophenyl)ethyl)(methyl)amino)phosphoryl)amino)-2-methylpropanoate] | – | – | 7.37 | 6.89
CCCOC(=O)C(C)(C)NP(=O)(CO[C@H](C)Cn1cnc2c(N)ncnc21)N[C@H](C)c1ccc(OC(F)(F)F)cc1 (stereo partly drawn) [Example 3A] | – | – | 7.10 | 6.11
CCCOC(=O)C(C)(C)NP(=O)(CO[C@H](C)Cn1cnc2c(N)ncnc21)N[C@H](c1ccc(OC(F)(F)F)cc1)C(F)(F)F (stereo partly drawn) [Example 4B] | 7.80 | 6.80 | – | –
CCCOC(=O)C(C)(C)N[P@@](=O)(CO[C@H](C)Cn1cnc2c(N)ncnc21)NCc1ccc(OC(F)(F)F)cc1 [Example 7B, propyl 2-(((R)-((((R)-1-(6-amino-9H-purin-9-yl)propan-2-yl)oxy)methyl)((4-(trifluoromethoxy)benzyl)amino)phos-phoryl)amino)-2-methylpropanoate and propyl 2-(((S)-((((R)-1-(6-amino-9H-purin-9-yl)propan-2-yl)oxy)methyl)((4-(trifluoromethoxy)benzyl)amino)phos-phoryl)amino)-2-methylpropanoate] | 7.35 | 6.52 | – | –
CCCOC(=O)C(C)(C)N[P@@](=O)(CO[C@H](C)Cn1cnc2c(N)ncnc21)N[C@H](C)c1cccc(F)c1 [Example 9A, propyl 2-(((R)-((((R)-1-(6-amino-9H-purin-9-yl)propan-2-yl)oxy)methyl)(((R)-1-(3-fluorophenyl)ethyl)amino)phosphoryl)ami-no)-2-methylpropanoate and propyl 2-(((S)-((((R)-1-(6-amino-9H-purin-9-yl)propan-2-yl)oxy)methyl)(((R)-1-(3-fluorophenyl)ethyl)amino)phosphoryl)ami-no)-2-methylpropanoate] | 7.05 | 6.03 | – | –
CCCOC(=O)C(C)(C)N[P@@](=O)(CO[C@H](C)Cn1cnc2c(N)ncnc21)N[C@@H](C)c1cccc(F)c1 [Example 10A, propyl 2-(((R)-((((R)-1-(6-amino-9H-purin-9-yl)propan-2-yl)oxy)methyl)(((S)-1-(3-fluorophenyl)ethyl)amino)phosphoryl)ami-no)-2-methylpropanoate and propyl 2-(((S)-((((R)-1-(6-amino-9H-purin-9-yl)propan-2-yl)oxy)methyl)(((S)-1-(3-fluorophenyl)ethyl)amino)phosphoryl)ami-no)-2-methylpropanoate] | 7.17 | 6.25 | – | –
CCCOC(=O)C(C)(C)N[P@@](=O)(CO[C@H](C)Cn1cnc2c(N)ncnc21)N[C@@H](C)c1cccc(F)c1 [Example 10B, propyl 2-(((R)-((((R)-1-(6-amino-9H-purin-9-yl)propan-2-yl)oxy)methyl)(((S)-1-(3-fluorophenyl)ethyl)amino)phosphoryl)ami-no)-2-methylpropanoate and propyl 2-(((S)-((((R)-1-(6-amino-9H-purin-9-yl)propan-2-yl)oxy)methyl)(((S)-1-(3-fluorophenyl)ethyl)amino)phosphoryl)ami-no)-2-methylpropanoate] | 7.00 | 6.31 | – | –
CCCOC(=O)C(C)(C)NP(=O)(CO[C@H](C)Cn1cnc2c(N)ncnc21)N[C@@H](C)c1ccc(C(F)(F)F)cc1 (stereo partly drawn) [Example 11A, propyl 2-(((R)-((((R)-1-(6-amino-9H-purin-9-yl)propan-2-yl)oxy)methyl)(((S)-1-(4-(trifluoromethyl)phenyl)ethyl)amino)phos-phoryl)amino)-2-methylpropanoate and propyl 2-(((S)-((((R)-1-(6-amino-9H-purin-9-yl)propan-2-yl)oxy)methyl)(((S)-1-(4-(trifluoromethyl)phenyl)ethyl)amino)phosphoryl)amino)-2-methylpropanoate] | 8.34 | 7.38 | – | –
CCCOC(=O)C(C)(C)NP(=O)(CO[C@H](C)Cn1cnc2c(N)ncnc21)N[C@@H](C)c1ccc(C(F)(F)F)cc1 (stereo partly drawn) [Example 11B, propyl 2-(((R)-((((R)-1-(6-amino-9H-purin-9-yl)propan-2-yl)oxy)methyl)(((S)-1-(4-(trifluoromethyl)phenyl)ethyl)amino)phos-phoryl)amino)-2-methylpropanoate and propyl 2-(((S)-((((R)-1-(6-amino-9H-purin-9-yl)propan-2-yl)oxy)methyl)(((S)-1-(4-(trifluoromethyl)phenyl)ethyl)amino)phosphoryl)amino)-2-methylpropanoate] | 7.80 | 7.08 | – | –
CCCOC(=O)C(C)(C)NP(=O)(CO[C@H](C)Cn1cnc2c(N)ncnc21)N[C@H](C)c1ccc(C(F)(F)F)cc1 (stereo partly drawn) [Example 12A, propyl 2-(((R)-((((R)-1-(6-amino-9H-purin-9-yl)propan-2-yl)oxy)methyl)(((R)-1-(4-(trifluoromethyl)phenyl)ethyl)amino)phos-phoryl)amino)-2-methylpropanoate and propyl 2-(((S)-((((R)-1-(6-amino-9H-purin-9-yl)propan-2-yl)oxy)methyl)(((R)-1-(4-(trifluoromethyl)phenyl)ethyl)amino)phos-phoryl)amino)-2-methylpropanoate] | 7.02 | 6.17 | – | –
